pIC50: −log10 of the molar value. Where “and” joins values, the source holds several entries; their conditions need not be identical. Equal values may be shown once.
Legend:
Format in all cases: functional
Rattus norvegicus [1] = species on record: Rattus norvegicus; assay: Vasorelaxant potency required to relax methoxamine contracted male Wistar Kyoto rat thoracic aorta
Rattus norvegicus [2] = assay: Antihypertensive activity expressed as percent maximum decrease in blood pressure at 45 umol/Kg for 0-6 hrs in spontaneously hypertensive male rats when administered perorally
Rattus norvegicus [3] = assay: Antihypertensive activity expressed as percent maximum decrease in blood pressure at 45 umol/kg for 18-24 hrs in spontaneously hypertensive male rats when administered perorally
Rattus norvegicus [4] = assay: Antihypertensive activity expressed as percent maximum decrease in blood pressure at 45 umol/kg for 6-12 hrs in spontaneously hypertensive male rats when administered perorally
Rattus norvegicus [5] = assay: Antihypertensive activity expressed as percent maximum decrease in blood pressure at 45 umol/kg for 12-18 hrs in spontaneously hypertensive male rats when administered perorally

Row | SMILES | pIC50 (Rattus norvegicus [1]) | Max decrease (Rattus norvegicus [2]) [%] | Max decrease (Rattus norvegicus [3]) [%] | Max decrease (Rattus norvegicus [4]) [%] | Max decrease (Rattus norvegicus [5])
1 | CCC(C)(C)/N=C(\NC#N)NCc1ccc(C#N)cc1 | 5.82 | – | – | – | –
2 | CC(/N=C(\NC#N)Nc1cccc([N+](=O)[O-])c1)C(C)(C)C (centres undefined) | 6.77 | – | – | – | –
3 | CC(/N=C(\NC#N)Nc1ccc(C#N)cc1)C(C)(C)C (centres undefined) | 7.66 | 33 | 25 | 26 | 26%
4 | CC(C)(C)/N=C(\NC#N)Nc1ccc(C#N)cc1 | 6.37 | – | – | – | –
5 | CC(/N=C(\NC#N)Nc1ccccc1[N+](=O)[O-])C(C)(C)C (centres undefined) | 6.62 | – | – | – | –
6 | CC(/N=C(\NC#N)Nc1ccc([N+](=O)[O-])cc1)C(C)(C)C (centres undefined) | 5.29 | – | – | – | –
7 | C/N=C(\NC#N)Nc1ccc(C#N)cc1 | 3.91 | – | – | – | –
8 | CC(C)/N=C(\NC#N)Nc1ccc(C#N)cc1 | 4.72 | – | – | – | –
9 | CCC(C)(C)/N=C(\NC#N)Nc1ccc(C#N)cc1 | 6.92 | – | – | – | –
10 | CC(/N=C(\NC#N)Nc1cccc(C#N)c1)C(C)(C)C (centres undefined) | 6.38 | – | – | – | –
11 | CC(/N=C(\NC#N)Nc1ccccc1)C(C)(C)C (centres undefined) | 6.06 | – | – | – | –
12 | CC1(C)Oc2ccc(C#N)cc2[C@@H](N2CCCC2=O)[C@@H]1O [CROMAKALIM] | 7.26 | 63 | 42 | 35 | 37%
13 | CC(N/C(=N\C#N)Nc1ccncc1)C(C)(C)C (centres undefined) [PINACIDIL ANHYDROUS] | 7.15 | 40 | 14 | – | 21% and 23%

From ChEMBL document CHEMBL1126335, “Aryl cyanoguanidine potassium channel openers” (Bioorg Med Chem Lett, 1992)
